Data taken from article PMC4010497, “Synthesis and Evaluation of Fluorine-Substituted Phenyl Acetate Derivatives as Ultra-Short Recovery Sedative/Hypnotic Agents” (PLoS ONE, 2014).

Legend:
[1] = In vitro metabolic half-life in monkey whole blood; format: in vitro ADME; conditions: male, Cynomolgus monkey (n = 3), 37°C, read-out: Mean t1/2 Value
Procedure: (§1) Human whole blood stability experiments were conducted in whole blood from four human donors (male, 18–25 years). Single experiments were conducted with pooled blood from Sprague-Dawley rats (male, 8 weeks, n = 3), New Zealand White rabbits (male, 8–10 weeks, n = 3), Beagle dogs (male, 2–3 years, n = 3) and Cynomolgus monkeys (male, 3–4 years, n = 3). All the blood samples were provided by Xuzhou Medical College. A 1.35-ml aliquot of blood was warmed at 37°C for 5 min and hypnotic (from a 40 mM stock in DMSO solution) was added to a final concentration of 200 µM. After the specified incubation time, a 150-µl sample was removed and the metabolic reaction was quenched using 150-µl acetonitrile. Zero time-point samples were prepared by adding 150-µl acetonitrile (using a 4 mM stock in DMSO) to 150-µl blood before addition of the hypnotic. The quenched samples were centrifuged, and the supernatant was separated and stored at −20°C until analyzed. Hypnotic concentrations in thawed samples were determined by high-performance liquid chromatography using a 3-µm phenyl 4.6×50-mm C-A-25, ACE column with the UV detector set at 240 nm. […] The lower limit of quantitation of this assay is 3 µM and the accuracy within 15% at 10 µM. The metabolic half-lives were quantified from the incubation time-dependent change in drug concentration.

[2] = system: rat; format: in vivo
Procedure: (§2) All tests were performed during the light period. Groups of mice, rats and rabbits were injected intravenously (lateral tail vein) over 10 s with each dose of test compound, placed in separate boxes to reduce external stimuli and assessed for the loss of righting reflex. Dosing was performed using mg/kg scheme. A set of dose levels was chosen, and depending on whether the loss of righting reflex was observed, extra doses were introduced to provide data for the loss of righting reflex over a narrow dose range to allow potency calculations. From the percentage of mice, rats and rabbits in each group showing loss of righting reflex for ≥30 s, a probit analysis (SAS Institute) was performed to obtain an HD50 for each compound with 95% confidence limits.
(§3) Immediately following the injection, the mice, rats and rabbits were tested for loss of righting reflex. […] Once a loss was observed, the interval between the loss of righting reflex and the return to righting reflex was recorded. The anesthetized animals recovered righting reflexes spontaneously. To compare the duration of LORR of each compound at equipotent doses, groups of mice, rats and rabbits were injected with each compound at 2× HD50 over 10 s.
(§4) Time to walk was the time required after righting before mice and rabbits walked from the center to the periphery of a 30-cm diameter dise.
(§5) The rotarod test was conducted to evaluate the recovery to the motor coordination. Before the LORR test, mice were trained for 2 consecutive days. Trained mice could maintain their balance on rod for more than 2 mins. After the mice could walk from the center to the periphery of a 30-cm diameter dise, they were put on the rotarod. Mice were classified as behavioral recovery when, on being placed on the rod, they could maintain their balance for 20 s. The time to behavioral recovery was the time required after mice walked from the centre to the periphery of a 30-cm diameter disc before they could maintain their balance on rod for 20 s.

[3] = target: T1, human GABAA receptor α1, β2 and γ2 (CHO-K1 cells) (Homo sapiens, UniProt P14867+P18507+P47870); experiment: cell-based; conditions: GABAA (α1β2γ2) CHO-K1 cell
T1 construct: expressed in transfected cells; host or cells: CHO-K1 cells, stably transfected
Procedure: Chinese hamster ovary (CHO)-K1 cells transfected stably with human GABAA receptor α1, β2 and γ2 subunit cDNAs were used. The cells were plated onto collagen-coated 35-mm cell culture dishes at low density for 1–7 days before recording. Test solutions were prepared in the extracellular solution on the day the patch-clamp assay was performed. The intracellular solution consisted of 22 mM KCl, 110 mM K-aspartate, 8 mM NaCl, 1 mM MgCl2, 1 mM CaCl2, 10 mM ethylene glycol tetraacetic acid, 5 mM Na2ATP, 10 mM hydroxyethyl piperazineethanesulfonic acid (HEPES) (adjusted to pH 7.2 using KOH), while the extracellular solution contained 145 mM NaCl, 4 mM KCl, 2 mM CaCl2, 2 mM MgCl2, 10 mM HEPES (adjusted to pH 7.4 using NaOH). The assay was performed at room temperature. Cells were maintained at −70 mV and the potentiation effect was assessed by co-application of the test compound with EC20 of muscimol after the cell was pre-incubated with the test compound for 45 s. GABA EC20 measured individually in each cell. The amplitude of the Cl− current in response to muscimol and/or test compound was determined. The response to the co-application of the test compound and muscimol was normalized to the control muscimol response as a percentage of the control. A potentiation effect was indicated by a value >100% of the control response. EC50 values were calculated using the four parameter logistic equation, where E was the amplitude of the muscimol-induced current in the presence of the anesthetic at concentration [A], EMAX was the amplitude of the response in the presence of a maximally effective concentration of the anesthetic, EC50 was the concentration of anesthetic producing a half-maximal enhancement of the muscimol-induced response and nH was the Hill coefficient. [drawing 1]

[4] = In vitro metabolic half-life in dog whole blood; format: in vitro ADME, Beagle dog
Procedure: Human whole blood stability experiments were conducted in whole blood from four human donors (male, 18–25 years). Single experiments were conducted with pooled blood from Sprague-Dawley rats (male, 8 weeks, n = 3), New Zealand White rabbits (male, 8–10 weeks, n = 3), Beagle dogs (male, 2–3 years, n = 3) and Cynomolgus monkeys (male, 3–4 years, n = 3). All the blood samples were provided by Xuzhou Medical College. A 1.35-ml aliquot of blood was warmed at 37°C for 5 min and hypnotic (from a 40 mM stock in DMSO solution) was added to a final concentration of 200 µM. After the specified incubation time, a 150-µl sample was removed and the metabolic reaction was quenched using 150-µl acetonitrile. Zero time-point samples were prepared by adding 150-µl acetonitrile (using a 4 mM stock in DMSO) to 150-µl blood before addition of the hypnotic. The quenched samples were centrifuged, and the supernatant was separated and stored at −20°C until analyzed. Hypnotic concentrations in thawed samples were determined by high-performance liquid chromatography using a 3-µm phenyl 4.6×50-mm C-A-25, ACE column with the UV detector set at 240 nm. A linear gradient 20–45% acetonitrile in water with 0.05% trifluoroacetic acid was run for more than 20 min at a flow rate of 1 ml/min. The lower limit of quantitation of this assay is 3 µM and the accuracy within 15% at 10 µM. The metabolic half-lives were quantified from the incubation time-dependent change in drug concentration.

[5] = system: mice; experiment: animal or person; format: in vivo; conditions: mice
Procedure: as §2, §3, §4, §5

[6] = In vitro metabolic half-life in rat whole blood; format: in vitro ADME; conditions: male, Sprague-Dawley Rat (n = 3), 37°C, read-out: Mean t1/2 Value
Procedure: as §1

[7] = system: rat; experiment: Therapeutic index (LD50/HD50) in rat; format: in vivo
Procedure: The LD50 was determined in mice, rats, and rabbits and the TI was calculated as LD50/HD50.

T1 sequence (P14867 28-456): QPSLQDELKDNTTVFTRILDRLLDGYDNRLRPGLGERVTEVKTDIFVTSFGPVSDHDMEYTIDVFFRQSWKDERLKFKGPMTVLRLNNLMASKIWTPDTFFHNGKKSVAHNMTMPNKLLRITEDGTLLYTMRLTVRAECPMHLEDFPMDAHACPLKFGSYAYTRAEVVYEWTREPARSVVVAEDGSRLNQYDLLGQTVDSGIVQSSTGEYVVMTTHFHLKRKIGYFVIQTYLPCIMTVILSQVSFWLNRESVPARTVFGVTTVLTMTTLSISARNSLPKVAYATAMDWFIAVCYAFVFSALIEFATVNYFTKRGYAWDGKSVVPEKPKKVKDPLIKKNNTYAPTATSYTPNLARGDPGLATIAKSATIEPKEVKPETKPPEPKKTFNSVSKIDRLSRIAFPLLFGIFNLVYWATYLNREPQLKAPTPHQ
T1 sequence (P47870 25-512 limits assumed): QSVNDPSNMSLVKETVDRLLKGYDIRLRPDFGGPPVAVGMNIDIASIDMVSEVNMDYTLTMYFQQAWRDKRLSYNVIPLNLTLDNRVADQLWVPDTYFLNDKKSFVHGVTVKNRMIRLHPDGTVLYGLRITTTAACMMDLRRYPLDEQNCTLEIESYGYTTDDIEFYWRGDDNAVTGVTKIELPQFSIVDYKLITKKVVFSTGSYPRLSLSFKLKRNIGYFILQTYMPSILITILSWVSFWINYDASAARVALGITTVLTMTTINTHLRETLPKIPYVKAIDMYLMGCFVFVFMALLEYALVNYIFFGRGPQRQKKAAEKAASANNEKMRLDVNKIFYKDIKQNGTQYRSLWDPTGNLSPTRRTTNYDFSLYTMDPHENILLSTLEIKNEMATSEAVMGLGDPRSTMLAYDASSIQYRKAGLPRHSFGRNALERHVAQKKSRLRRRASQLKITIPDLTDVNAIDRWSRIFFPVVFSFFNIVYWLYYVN
T1 sequence (P18507 40-475): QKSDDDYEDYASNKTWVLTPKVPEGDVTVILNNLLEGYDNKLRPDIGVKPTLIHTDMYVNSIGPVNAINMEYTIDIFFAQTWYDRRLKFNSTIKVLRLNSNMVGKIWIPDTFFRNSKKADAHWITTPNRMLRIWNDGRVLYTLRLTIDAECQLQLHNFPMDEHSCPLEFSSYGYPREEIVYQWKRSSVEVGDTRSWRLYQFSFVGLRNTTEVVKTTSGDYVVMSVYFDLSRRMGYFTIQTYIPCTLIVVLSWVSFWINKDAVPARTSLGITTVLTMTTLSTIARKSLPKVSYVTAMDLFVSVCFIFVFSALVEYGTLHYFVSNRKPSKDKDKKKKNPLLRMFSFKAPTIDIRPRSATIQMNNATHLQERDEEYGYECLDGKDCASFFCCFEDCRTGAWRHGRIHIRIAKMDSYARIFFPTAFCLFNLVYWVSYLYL

Structure (SMILES): CCOc1cc(CC(=O)OCC(F)(F)F)ccc1OCC(=O)N(CC)CC [Compound 5j, 2,2,2-trifluoroethyl 2-(4-(2-(diethylamino)-2-oxoethoxy)-3-ethoxyphenyl)acetate]
- half-life at 200 µM [1]: 48.9 ± 8.8 min
- Duration of LORR ([2]; 2× HD50 dose, mean ± SD): 66.5 ± 8.7 s
- Time to walk ([2]; 2× HD50 dose, mean ± SD): 14.2 ± 5.4 s
- time to behavioral recovery ([2]; 2× HD50 dose, mean ± SD): 22.8 ± 3.2 s
- HD50 ([2]; IV, 95% confidence limits): 12.9 (10.6∼13.7) mg/kg
- maximum potentiation relative to that of propanidid [3]: ~150%
- maximum potentiation relative to that produced by propofol [3]: approximately 50%
- EC50 ([3]; patch clamp, read-out: EC50, potentiation of EC20 muscimol evoked chloride currents): 12 µM
- stability in blood (in words) ([4]; dog blood): stable
- half-life at 200 µM ([4]; male, whole blood, Beagle dog (n = 3), 37°C, 200 µM, read-out: Mean t1/2 Value): > 60 min
- ED50 ([5]; Mus musculus, IV over 10 s, 95% confidence limits, read-out: HD50 (the source's name)): 24.6 mg/kg
- Time to walk ([5]; 2× HD50): 17.3 ± 5.8 s
- time to behavioral recovery ([5]; 2× HD50, rotarod): 28.2 ± 6.4 s
- Duration of LORR ([5]; IV 2× HD50, mean ± SD (n = 10)): 59.1 ± 7.4 s
- Onset time ([5]; IV, mean ± SD (n = 10)): 5.3 ± 1.2 s
- half-life at 200 µM [6]: 0.4 ± 0.1 min
- TI [7]: 13.3
